What was measured:
Type in all cases: in vivo
[1] = system: giant foxtail (Setaria faberii); experiment: Test D pre-/postemergence plant response; settings: Postemergence; for Plant response rating, Foxtail, Giant: scale 0 to 100, 0 no effect, 100 complete control
Procedure, shortened: (§1)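 Preemergence: seeds in loam/sand blend treated with test chemicals in non-phytotoxic solvent with surfactant; postemergence: plants at 2–18 cm (1- to 4-leaf stage) in peat-based medium sprayed likewise. Greenhouse 13 to 15 days, then visual rating vs controls, 0 (no effect) to 100 (complete control).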

soybean (Glycine max) = experiment: Test D pre-/postemergence plant response; settings: Postemergence
Procedure, shortened: as §1

[2] = system: morningglory (Ipomoea coccinea); experiment: Test D pre-/postemergence plant response; settings: Postemergence
Procedure, shortened: as §1

corn (Zea mays) = experiment: Test D pre-/postemergence plant response; settings: Postemergence; for Plant response rating, Corn: scale 0 to 100, 0 no effect, 100 complete control
Procedure, shortened: as §1

[3] = system: waterhemp (common waterhemp, Amaranthus rudis); experiment: Test D pre-/postemergence plant response; settings: Postemergence
Procedure, shortened: as §1

[4] = system: pigweed (Amaranthus retroflexus); experiment: Test D pre-/postemergence plant response; settings: Postemergence
Procedure, shortened: as §1

[5] = system: velvetleaf (Abutilon theophrasti); experiment: Test D pre-/postemergence plant response; settings: Postemergence
Procedure, shortened: as §1

[6] = system: Italian ryegrass (Lolium multiflorum); experiment: Test D pre-/postemergence plant response; settings: Postemergence
Procedure, shortened: as §1

[7] = system: barnyardgrass (Echinochloa crus-galli); experiment: Test D pre-/postemergence plant response; settings: Postemergence; for Plant response rating, Barnyardgrass: scale 0 to 100, 0 no effect, 100 complete control
Procedure, shortened: as §1

[8] = system: lambsquarters (Chenopodium album); experiment: Test D pre-/postemergence plant response; settings: Postemergence
Procedure, shortened: as §1

[9] = system: blackgrass (Alopecurus myosuroides); experiment: Test D pre-/postemergence plant response; settings: Postemergence; for Plant response rating, Blackgrass: scale 0 to 100, 0 no effect, 100 complete control
Procedure, shortened: as §1

[10] = system: large (Lg) crabgrass (Digitaria sanguinalis); experiment: Test D pre-/postemergence plant response; settings: Postemergence; for Plant response rating, Crabgrass, Large: scale 0 to 100, 0 no effect, 100 complete control
Procedure, shortened: as §1

kochia (Kochia scoparia) = experiment: Test B pre-/postemergence plant response
Procedure, shortened: (§2)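 Ratings reflect visual injury versus untreated controls, from 0 for no effect to 100 for complete control, assessed roughly 10 days after treatment. Formulation: non-phytotoxic solvent mix with surfactant; pre- and postemergence sprays on plants grown in loam soil and sand.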

[11] = system: ragweed (common ragweed, Ambrosia elatior); experiment: Test B pre-/postemergence plant response
Procedure, shortened: as §2

[12] = system: Italian ryegrass (Lolium multiflorum); experiment: Test B pre-/postemergence plant response
Procedure, shortened: as §2

[13] = 31 g ai/ha, scale 0 to 100 (0 no effect, 100 complete control)
[14] = 62 g ai/ha, scale 0 to 100, 0 no effect, 100 complete control
[15] = 125 g ai/ha, scale 0 to 100, 0 no effect, 100 complete control
[16] = 31 g ai/ha, Preemergence, 0 to 100 scale where 0 is no effect and 100 is complete control
[17] = 125 g ai/ha, postemergence, 0 to 100 scale, 0 no effect, 100 complete control
[18] = Postemergence, 31 g ai/ha, 0 to 100 scale (0 no effect, 100 complete control)
[19] = Preemergence, 125 g ai/ha, 0 to 100 scale (0 no effect, 100 complete control)

Structure (SMILES): Fc1ccc(Oc2ncc(Cl)cn2)c(-c2cc(C(F)(Cl)Cl)on2)c1 [Compound 221]
- Plant response rating (scale 0 to 100), Foxtail, Giant ([1]; 16 g ai/ha): 35
- Foxtail, Giant plant response rating [1, 13]: 5
- Plant response rating, Foxtail, Giant ([1]; 62 g ai/ha): 5
- Plant response rating, Foxtail, Giant ([1]; 125 g ai/ha): 35
- Plant response rating (scale 0 to 100), Soybean (soybean (Glycine max); 16 g ai/ha): 35
- Soybean plant response rating (soybean (Glycine max); [13]): 25
- Soybean plant response rating (soybean (Glycine max); [14]): 85
- Plant response rating, Soybean (soybean (Glycine max); [15]): 90
- Plant response rating (scale 0 to 100), Morningglory ([2]; 16 g ai/ha): 65
- Morningglory plant response rating [2, 13]: 65
- Morningglory plant response rating [2, 14]: 80
- Plant response rating, Morningglory [2, 15]: 85
- Plant response rating (scale 0 to 100), Corn (corn (Zea mays); 16 g ai/ha): 0
- Corn plant response rating (corn (Zea mays); [13]): 0
- Plant response rating, Corn (corn (Zea mays); 62 g ai/ha): 5
- Plant response rating, Corn (corn (Zea mays); 125 g ai/ha): 10
- Plant response rating (scale 0 to 100), Waterhemp ([3]; 16 g ai/ha): 70
- Waterhemp plant response rating [3, 13]: 85
- Waterhemp plant response rating [3, 14]: 100
- Plant response rating, Waterhemp [3, 15]: 100
- Plant response rating (scale 0 to 100), Pigweed ([4]; 16 g ai/ha): 95
- Pigweed plant response rating [4, 13]: 95
- Pigweed plant response rating [4, 14]: 98
- Plant response rating, Pigweed [4, 15]: 100
- Plant response rating (scale 0 to 100), Velvetleaf ([5]; 16 g ai/ha): 70
- Velvetleaf plant response rating [5, 13]: 65
- Velvetleaf plant response rating [5, 14]: 80
- Plant response rating, Velvetleaf [5, 15]: 100
- Plant response rating (scale 0 to 100), Ryegrass, Italian ([6]; 16 g ai/ha): 5
- Ryegrass, Italian plant response rating [6, 13]: 5
- Ryegrass, Italian plant response rating [6, 14]: 20
- Plant response rating, Ryegrass, Italian [6, 15]: 10
- Plant response rating (scale 0 to 100), Barnyardgrass ([7]; 16 g ai/ha): 0
- Barnyardgrass plant response rating [7, 13]: 5
- Plant response rating, Barnyardgrass ([7]; 62 g ai/ha): 5
- Plant response rating, Barnyardgrass ([7]; 125 g ai/ha): 10
- Plant response rating (scale 0 to 100), Lambsquarters ([8]; 16 g ai/ha): 85
- Lambsquarters plant response rating [8, 13]: 95
- Lambsquarters plant response rating [8, 14]: 95
- Plant response rating, Lambsquarters [8, 15]: 98
- Plant response rating (scale 0 to 100), Blackgrass ([9]; 16 g ai/ha): 5
- Blackgrass plant response rating [9, 13]: 10
- Plant response rating, Blackgrass ([9]; 62 g ai/ha): 5
- Plant response rating, Blackgrass ([9]; 125 g ai/ha): 40
- Plant response rating (scale 0 to 100), Crabgrass, Large ([10]; 16 g ai/ha): 10
- Crabgrass, Large plant response rating [10, 13]: 10
- Plant response rating, Crabgrass, Large ([10]; 62 g ai/ha): 25
- Plant response rating, Crabgrass, Large ([10]; 125 g ai/ha): 30
- Plant response rating, Kochia (kochia (Kochia scoparia); [16]): 50
- Plant response rating, Kochia (kochia (Kochia scoparia); [17]): 100
- Plant response rating, Kochia (kochia (Kochia scoparia); [18]): 80
- Kochia plant response rating (kochia (Kochia scoparia); [19]): 70
- Plant response rating, Ragweed [11, 16]: 0
- Plant response rating, Ragweed [11, 17]: 50
- Plant response rating, Ragweed [11, 18]: 10
- Ragweed plant response rating [11, 19]: 0
- Plant response rating, Ryegrass, Italian [12, 16]: 20
- Plant response rating, Ryegrass, Italian [12, 17]: 40
- Plant response rating, Ryegrass, Italian [12, 18]: 0
- Ryegrass, Italian plant response rating [12, 19]: 40

Reference: patent US10131652B2, “Pyrimidinyloxy benzene derivatives as herbicides” (E. I. DU PONT DE NEMOURS AND COMPANY, priority 2014, dated 2018)
